Experimental data from PubChem BioAssay (NCI).
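Results reflect a 48-hour exposure of cells in 96-well plates to compound at five concentrations. GI50 = concentration required for 50% inhibition of growth. Definition used: TGI = concentration required for complete inhibition of growth.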

Columns and labels:
Assay in all cases: DTP human tumour cell line panel, 48 h
[1] = system: A549 NSCLC
[2] = system: BT-549 breast
[3] = system: COLO 205 colon
[4] = system: DU-145 prostate
[5] = system: MOLT-4 leukemia
[6] = system: NCI-H23 lung
[7] = system: RXF 393 renal
[8] = system: SNB-75 CNS
[9] = system: SW-620 colon
[10] = system: UACC-62 melanoma
[11] = system: OVCAR-3 ovarian

Row | Compound | TGI [1] [µM] | TGI [2] [µM] | TGI [3] [µM] | TGI [4] [µM] | TGI [5] [µM] | TGI [6] [µM] | TGI [7] [µM] | TGI [8] [µM] | TGI [9] [µM] | TGI [10] [µM] | TGI [11] [µM] | GI50 [4] [µM] | GI50 [6] [µM] | GI50 [11] [µM] | GI50 [7] [µM] | GI50 [8] [µM] | GI50 [9] [µM] | GI50 [10] [µM]
1 | Cc1nnc(N)nc1C/C=C/C(C)Sc1ccc(Cl)cc1 (centres undefined) | 58.6 | > 67.2 | 49.8 | 38.1 | > 100 | 36 | 22.2 | 19.2 | > 48 | 17.8 | – | – | – | – | – | – | – | –
2 | Cc1cnc2c(c1)C(=O)N(c1ccc(Br)cc1)S2(=O)=O | > 100 | > 100 | > 100 | > 100 | > 100 | > 100 | – | > 100 | > 100 | > 100 | > 100 | – | – | – | – | – | – | –
3 | N#Cc1c2c(c(Nc3cccc(C(F)(F)F)c3)n3c1nc1ccccc13)CCCC2 | – | 95.3 | > 100 | > 100 | > 100 | 89.2 | 86.2 | 57.3 | > 100 | – | > 100 | – | – | – | – | – | – | –
4 | CCCCCCc1cc2cc(-c3cn4ccccc4n3)c(=O)oc2cc1O | 31.2 | 22.1 | > 100 | 19.3 | > 63.3 | 17 | 15.1 | 8.81 | > 53.6 | 20.6 | 15.7 | – | – | – | – | – | – | –
5 | CCOC(OCC)[C@@H]1C[C@@H]2N(O[C@H](OC3CCCC3(c3ccccc3)c3ccccc3)[C@H](OC(C)=O)[C@@]2(CC)Cc2ccc(OC)c(OC)c2)O1 (some centres undefined) | > 100 | > 100 | > 100 | > 100 | > 100 | > 100 | > 100 | > 100 | > 100 | > 100 | > 100 | – | – | – | – | – | – | –
6 | Cc1c2c(n3c(nc4ccccc43)c1C#N)NCC2 | > 10 | > 10 | > 10 | > 10 | > 10 | > 10 | > 10 | > 10 | > 10 | > 10 | > 10 | – | – | – | – | – | – | –
7 | COc1c(N2CCCCC2)c2c(=O)c3ccccc3oc2c2c3ccccc3n(C)c12 | > 100 | > 100 | > 100 | > 100 | > 100 | > 100 | > 100 | > 100 | > 100 | > 100 | > 100 | – | – | – | – | – | – | –
8 | CC(C)(C)C1CCC2c3c([nH]c4ccccc34)C3C(=O)N(c4cc(Cl)ccc4Cl)C(=O)C3C2C1 (centres undefined) | > 100 | > 100 | > 100 | > 100 | > 100 | > 100 | > 100 | – | > 100 | > 100 | > 100 | – | – | – | – | – | – | –
9 | CC(=O)OC1CC2C(=O)CC1(C)C2(C)C (centres undefined) | > 100 | – | > 100 | > 100 | > 100 | > 100 | > 100 | > 100 | > 100 | > 100 | > 100 | – | – | – | – | – | – | –
10 | O=C1NC(NNc2ccccc2)=N/C1=C\c1ccco1 | > 100 | 50.7 | 25.1 | 42.9 | > 100 | 45.9 | 28.6 | > 100 | 60.7 | 17.3 | 38.1 | – | – | – | – | – | – | –
11 | CCOC(=O)c1cc(C2CCN(Cc3ccccc3)C2=O)c(C(=O)/C=C(/C)N)[nH]1 (centres undefined) | > 100 | > 100 | > 100 | > 100 | > 100 | > 100 | > 100 | > 100 | > 100 | > 100 | > 100 | – | – | – | – | – | – | –
12 | Cc1ccc(/C=C2\CCS(=O)(=O)c3ccccc3C2=O)cc1 | > 100 | 34 | 30.2 | 27.7 | 43.6 | 29.6 | 44.2 | 32.9 | 47.9 | 33.4 | 37.7 | – | – | – | – | – | – | –
13 | CCCC1(N2C(=O)c3ccc4c5c(ccc(c35)C2=O)N(C2(CCC)CCCCC2)C4=O)CCCCC1 | > 100 | – | > 100 | > 100 | > 100 | > 100 | > 100 | – | > 100 | > 100 | > 100 | – | – | – | – | – | – | –
14 | C=C1C(=O)O[C@H]2C1C[C@H](O)/C(C)=C/CC[C@@]1(C)O[C@H]21 (some centres undefined) | > 100 | – | 18.2 | 49.5 | – | 37.5 | 31.9 | > 100 | 21.6 | 22.9 | – | – | – | – | – | – | – | –
15 | CC(Cn1c(=O)oc2ccccc21)N(C)C (centres undefined) | – | > 100 | > 100 | > 100 | > 100 | > 100 | > 100 | > 100 | > 100 | > 100 | > 100 | – | – | – | – | – | – | –
16 | Cc1ccc2nc(-c3nccn3C)cc(C(=O)NC(C)CN(C)C)c2c1 (centres undefined) | > 100 | > 100 | > 100 | > 100 | – | > 100 | > 100 | > 100 | > 100 | > 100 | – | – | – | – | – | – | – | –
17 | C[C@@]12C[C@@H](c3ccccc3O1)N1CCCSC1=N2 | – | > 100 | > 100 | > 100 | > 100 | > 100 | > 100 | > 100 | > 100 | > 100 | > 100 | – | – | – | – | – | – | –
18 | Cn1cc(-c2csc(-c3cn(CCCN4CCCCC4)c4ccc(Br)cc34)n2)c2cccnc21 | – | – | – | 3.21 | – | 3.51 | 3.19 | 5.8 | 3.26 | 3.4 | 3.38 | 1.79 | 1.79 | 1.8 | 1.64 | 1.44 | 1.82 | 1.78
19 | COc1c(-c2ccc(F)cc2)oc2c(CC(=O)O)cccc2c1=O | > 100 | > 100 | > 100 | > 100 | > 100 | > 100 | > 100 | – | – | > 100 | > 100 | – | – | – | – | – | – | –
20 | COC(=O)CCc1cc(OC)c2oc(-c3ccc(OC)c(OC)c3)c(CO)c2c1 | > 100 | > 100 | > 100 | > 100 | > 100 | > 100 | – | – | > 100 | > 100 | > 100 | – | – | – | – | – | – | –
